Measurements published in patent US20260034200A1, “TOLEROGENIC PEPTIDES” (University of Birmingham, priority 2022, published 2026).
Each block holds one molecule with its values, some of them ahead of it. Ends that are not written are not given here.

Assays:
[1] = test system: GAD65 P10-specific T-cell hybridomas; assay: T-cell hybridoma screen with Priess cells as APCs, IL-2 ELISA; format: cell-based, mouse; conditions: for epitope mapping by hybridoma response: 15-mers and truncated peptides, hybridomas SC3 and SC22, 48 h co-culture
Experimental: HLA-DR4 transgenic mice were injected subcutaneously with Complete Freund's Adjuvant (CFA) and 100 μg of GAD65 P10 30-mer. After 10 days, splenocytes were isolated and re-stimulated with GAD65 P10 30-mer for a further 4-5 days before fusion with hypoxanthine-aminopterin-thymidine (HAT) sensitive BW5147 cells using polyethylene glycol (PEG). Fused hybridomas were expanded in HAT selection media before antigen-specific screening. Co-cultures of 1×10^5 hybridomas and 2×10^5 Priess cells (an Epstein-Barr Virus (EBV) transformed DR4 (DRB1*04:01) expressing human cell line (ECACC 86052111)) as antigen presenting cells (APCs) were incubated for 48 h in a 96-well plate with peptide, whole GAD65 protein, or media only. Antigen-specific responses were determined by IL-2 secretion into culture supernatant by ELISA assay (BioLegend 431004). Hybridomas that proliferated in response to both GAD65 protein and GAD65 30-mer were single cell cloned by limiting dilution.
Six 15-mers that spanned the parent 30-mer amino acid sequence were generated by 3 amino acid shifts from the N-terminus toward the C-terminus.

Solubility in PBS = format: physicochemical
Experimental: Peptides were synthesized by GL Biochem (Shanghai) Ltd or Genscript (Leiden, The Netherlands). Peptides were >90% purity, resuspended from lyophilised powder in either 100% v/v dimethyl sulfoxide (DMSO) for 30-mers or PBS for soluble peptides. GAD65 protein was synthesised by Biologics Corporation. Purified protein derivative (PPD; Prionics; 7600060) was used at 300 IU/mL. Keyhole limpet haemocyanin (KLH; ThermoFisher Scientific; 77600) was used at 20 μg/mL.
Iterations designed around the core minimal epitope included retention of non-critical residues and/or addition of multiple lysine residues to both the N- and C-termini (FIG. 3E). […] Although P10.5.C.6K contains only the critical core epitope with additional lysine residues, the re-inclusion of the single non-critical alanine at the C-terminus (P10.5.C+1.6K), increased the potency of the single-clone hybridoma response by 10-fold (FIG. 3F).

[2] = test system: MHC class II molecules on fixed or non-fixed HLA-DR4 transgenic mouse splenocytes (hybridoma SC3 readout); assay: Fixed APC T-cell hybridoma screen; format: cell-based; conditions: co-culture with formaldehyde fixed and non-fixed HLA-DR4 splenocytes, 48 h
Experimental: Splenocytes from HLA-DR4 transgenic mice were formaldehyde fixed by the following protocol performed at room temperature; 5 min incubation with 0.5% w/v formaldehyde in PBS at 1×10^6 cells/mL quenched by addition of an equal volume of 0.4 M glycine in PBS solution for a further 5 min, before three washes with cold PBS. T-cell hybridoma screens were set up using 1×10^5 hybridomas and either 2×10^5 formaldehyde fixed APCs or 2×10^5 non-fixed APCs for 48 h co-culture with stimulant or control and responses measured by IL-2 secretion.
(§1) The next step was to test if GAD65 P10.5.C+1.6K (P10Sol; SEQ ID NO 23) could bind to: (i) MHC class II molecules without antigen processing and, (ii) to steady-state CD11c^+ APCs. These properties are good indicators of whether a peptide can induce tolerance and be characterised as an apitope (Shepard et al., 2021). Formaldehyde fixation of splenocytes inhibits antigen processing and so to test whether GAD65 P10Sol could bind directly to cell-surface MHC class II without antigen processing, GAD65 P10-specific hybridoma SC3 was co-cultured with fixed or non-fixed splenocytes from HLA-DR4 transgenic mice. […] To test whether P10Sol could bind to steady-state CD11c^+ APCs in vivo, HLA-DR4 transgenic mice were injected with 80 μg of P10Sol or PBS, with CD11c^+ splenocytes isolated 1 h later and co-cultured with GAD65 P10 hybridomas SC3 or SC22. […]

steady-state CD11c+ APCs = assay: Steady state CD11c+ peptide binding assay; format: in vivo, HLA-DR4 transgenic mice; conditions: antigen added exogenously to the in vitro culture
Experimental: HLA-DR4 transgenic mice were injected subcutaneously with 80 μg of GAD65 P10.5.C+1.6K (GAD65 P10Sol) peptide, before isolation of CD11c^+ splenocytes 1 h later CD11c^+ positive selection kit (Miltenyi; 130-125-835). T-cell hybridoma responses were measured by secreted IL-2 after a 48 h co-culture of 0.5×10^5 CD11c^+ cells with 1×10^5 GAD65 P10-specific hybridomas with or without exogenous antigen added in vitro.
as §1

[3] = biological target: T1, HLA-DR4 MHC class II (HLA-DRA*0101, HLA-DRB1*0401) (human, UniProt P01903 26-254; P01911 30-266, limits assumed); assay: IL-2 response of hybridoma SC3 with formaldehyde-fixed or non-fixed HLA-DR4 transgenic splenocytes
T1 construct: whole, on cells; On splenocytes or CD11c+ splenocytes of HLA-DR4 transgenic mice; also called MHCII; DR4 (DRB1*04:01)
T1 MHC II alpha: not shown
T1 MHC II beta: not shown
Description: as §1, with “CD11c⁺” for “CD11c^+”, “mice. Response to whole GAD65 protein required antigen processing from non-fixed splenocytes, whereas both GAD65 P10 30-mer and GAD65 P10Sol (SEQ ID NO 23) induced strong IL-2 responses from hybridoma SC3 when co-cultured with both fixed and non-fixed splenocytes (FIG. 3G).” for “mice.”

[4] = biological target: T1, HLA-DR4 MHC class II (HLA-DRA*0101, …); assay: cell-based or functional assay
[5] = biological target: TCRs of individuals with type 1 diabetes; assay: cell-based or functional assay

Molecule: KHKWKLSGVERANSV [P10.5 15-mer]
epitope mapping by hybridoma response [1]: responsive 15-mer

Molecule: KKKWKLSGVERKKK [Peptide P10.5.C.6K, KKKWKLSGVERKKK]
solubility in PBS (Solubility in PBS): highly soluble

Molecule: WKLSGVER [Peptide P10.5.C]
epitope mapping by hybridoma response [1]: minimal core epitope

Molecule: glutamate decarboxylase 65 (GAD65) [GAD65 protein, reference compound]
hybridoma IL-2 response ([1]; hybridoma multi-clone 6 with HLA-DRB1*04:01 expressing APCs): could respond | IL-2 response from hybridoma SC3 [2]: required antigen processing from non-fixed splenocytes | IL-2 response of P10-specific hybridomas to CD11c+ cells from PBS injected mice (steady-state CD11c+ APCs): observed

B2: GAD65 P10.5.C+1.6K (P10Sol) (peptide)
peptide: KKKWKLSGVERAKKK
potency of the single-clone hybridoma IL-2 response with Priess cells, against P10.5.C.6K (SEQ ID NO 22) [4]: 10 fold | FAIM+ (CD25+ CD71+ CTVmid CD4 T-cell) response of T1D patient PBMCs; share of P10 30-mer responders that also responded to P10Sol [5]: 38%

Second part, the molecule after the results:

solubility in PBS (Solubility in PBS): highly soluble
Molecule: KKKWKLSGVERAKKK [Peptide P10Sol, KKKWKLSGVERAKKK]

binding result [3]: binds
B1: GAD65 P10 30-mer (peptide)
peptide: DAAWGGGLLMSRKHKWKLSGVERANSVTWN
notes: Synthetic 30-residue fragment of human GAD65
